Assay results: ChEMBL document CHEMBL3108774, “Azaindoles: noncovalent DprE1 inhibitors from scaffold morphing efforts, kill Mycobacterium tuberculosis and are efficacious in vivo” (J Med Chem, 2013)
≈ marks a conversion by molar mass, not a printed value.

Legend:
Assay type in all cases: functional
[1] = test system: Mycobacterium tuberculosis; assay: Antimicrobial activity against Mycobacterium tuberculosis H37Rv ATCC 27294 harboring DprE1 Y314H mutant assessed as growth inhibition after 5 days by microdilution method
[2] = test system: Mycobacterium tuberculosis; assay: Antimicrobial activity against Mycobacterium tuberculosis H37Rv ATCC 27294 overexpressing DprE1 assessed as growth inhibition after 5 days by microdilution method; conditions: H37Rv ATCC 27294, 120 h
[3] = test system: Mycobacterium tuberculosis; assay: Antimicrobial activity against Mycobacterium tuberculosis H37Rv ATCC 27294 harboring DprE1 C387S mutant assessed as growth inhibition after 5 days by microdilution method
[4] = test system: Mycobacterium tuberculosis; assay: Antimicrobial activity against Mycobacterium tuberculosis H37Rv ATCC 27294 harboring DprE1 C387G mutant assessed as growth inhibition after 5 days by microdilution method

SMILES	MIC [1]	MIC [2]	MIC [3]	MIC [4]
COc1ncnc(Cn2cc(C(=O)NCCF)c3ncccc32)c1C	>100 µM	50 µM (≈ 17.2 µg/mL)	3.12 µM (≈ 1.07 µg/mL)	0.78 µM (≈ 0.268 µg/mL)
COc1ncnc(Cn2cc(C(=O)NCCF)c3ncc(C)cc32)c1C	>200 µM	6.25 µM (≈ 2.23 µg/mL)	0.39 µM (≈ 0.139 µg/mL)	0.39 µM (≈ 0.139 µg/mL)
COc1ncnc(Cn2cc(C(=O)NCCO)c3ncc(C)cc32)c1C [TBA-7371]	>200 µM	100 µM (≈ 35.5 µg/mL)	0.39 µM (≈ 0.139 µg/mL)	0.78 µM (≈ 0.277 µg/mL)
